# “And” between values parts separate entries of the source, which are not always exact repeats. Identical values can stand only once. “Also recorded” adds a separate entry of the source.
# How the values were obtained:
# [1] = system: granulocyte-mediated suppression of T cell proliferation; test: T cell/granulocyte co-culture assay, healthy donor; format: cell-based, human
# Method: T cell and NK cell proliferation assays. T cells or NK cells were purified from healthy donor human blood or from murine splenocytes using a negative selection kit for the appropriate cell type and species from Stemcell Technologies. Isolated T cells or NK cells were loaded with carboxyfluorescein succinimidyl ester (CFSE, Thermo Fisher) and stimulated for 72-96 h in complete growth media containing a minimum of either 50 µM L-arginine (NK cells) or 100 μM L-arginine (T cells). […] Proliferation was quantified by analyzing CFSE dilution by flow cytometry (Guava flow cytometer, Millipore, Billerica, Mass. or Attune N×T flow cytometer, ThermoFisher).
# T cell/myeloid cell co-culture assays. […] Granulocytes were incubated for 48 h at 37° C., during which time they spontaneously activate as determined by surface expression of CD66b and scatter properties. […] Co-cultures were incubated for 3-4 days, at which time media were analyzed for L-arginine and L-ornithine by mass spectrometry and T cell proliferation was determined by flow cytometry. […] Cytokines were quantified in the media from T cell co-culture assays using the Cytometric Bead Array kit according to the manufacturer's instructions (BD Biosciences).
# Recombinant human Arg2 = target: T1, Recombinant human Arg2 (Homo sapiens, UniProt P78540); test: Recombinant arginase activity assay, Arg2; format: biochemical; conditions: mean (SD), N=2, 20 mM L-arginine
# T1 construct: Recombinant human arginase 2 (Arg2) comprising amino acids […] was purchased from US Biological; purchased US Biological
# T1 sequence (P78540 23-354): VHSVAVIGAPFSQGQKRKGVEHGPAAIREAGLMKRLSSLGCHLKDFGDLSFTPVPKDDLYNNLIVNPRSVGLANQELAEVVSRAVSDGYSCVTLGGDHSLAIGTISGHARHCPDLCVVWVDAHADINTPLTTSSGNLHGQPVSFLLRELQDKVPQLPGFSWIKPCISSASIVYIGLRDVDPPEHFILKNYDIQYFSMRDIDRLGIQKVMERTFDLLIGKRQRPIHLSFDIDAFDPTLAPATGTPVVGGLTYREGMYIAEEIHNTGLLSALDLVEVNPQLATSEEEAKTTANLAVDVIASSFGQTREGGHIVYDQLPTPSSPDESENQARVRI
# Text: Recombinant arginase activity assays. […] Recombinant human arginase 2 (Arg2) comprising amino acids […] was purchased from US Biological (Salem, Mass.).
# Standard deviations are indicated in parentheses. […] N/A=not applicable.
# CT26 tumors = format: in vivo
# Text: (§1) Murine tumor studies. Female wild-type C57BL/6 and Balb/c mice (5-6 weeks old) were purchased from Charles River Laboratories (Hollister, Calif.). Severe combined immune deficient (SCID, B6.CB17-PrkdcSCID/SzJ) and Pmel-1 TCR transgenic (B6.Cg-Thyla/Cy Tg(TcraTcrb)8Rest/J) mice (5-6 weeks old) were purchased from The Jackson Laboratory (Bar Harbor, Me.). All mice were housed and treated in accordance with Institutional Animal Care and Use Committee guidelines. For the 4T1 tumor model, 1×10^5 cells were injected orthotopically into the mammary fat pad; for all other tumor models, 1×10^6 cells were injected subcutaneously (s.c.) in the right flank. […] Control groups received vehicle (water) twice daily by gavage. Tumor volume measured by digital caliper (length×width×width/2) and body weight were recorded three times weekly. Animals were euthanized when tumors necrotized or volumes reached 2000 mm^3. Anti-PD-L1 antibody (5 mg/kg, clone 10F.9G2, BioXCell, West Lebanon, N.H.) was injected intraperitoneally (i.p.) on days 5, 7, 9, 11, 13, and 15 for the CT26 model. Gemcitabine (Selleckchem, Houston, Tex.) was dosed 50 mg/kg i.p. on days 10 and 16 for the CT26 model or 60 mg/kg i.p. on days 6 and 10 for the LLC model. For CD8^+ cell depletion, mice were injected i.p. with anti-CD8 antibody (25 mg/kg, clone 2.43, BioXCell) on days −1, 0, +5, and +10. For NK cell depletion, mice were injected i.p. with anti-NK1.1 antibody (25 mg/kg, clone PK136, BioXCell) in the LLC and B16 models or with anti-Asialo GM1 sera (20 μL, Wako Chemicals, Richmond, Va.) in the CT26 model, per the same schedule as anti-CD8.
# (§2) Tumor dissociation and flow cytometry. […] Excised tumors were placed in RPMI-1640 containing 5% FBS on ice, minced with a razor blade, and dissociated in RPMI-1640 supplemented with mouse tumor dissociation enzymes (Miltenyi Biotec, Bergisch Gladbach, Germany) on a GentleMACS Octo Dissociator With Heat (Miltenyi Biotec) according to the manufacturer's instructions. Dissociated tumors were strained through 70 μm nylon mesh, washed with cold PBS containing 2% FBS, blocked with anti-CD16/CD32 (Fc block antibody, eBioscience), and stained for cell surface antigens. For B16 and 4T1 tumors, washed dissociated tumor cells were incubated with Dead Cell Removal MicroBeads (Miltenyi Biotec) and applied to a magnetic column prior to staining. For intracellular staining, cells were fixed and permeabilized using buffers purchased from R&D Systems or eBioscience for cytoplasmic or nuclear antigens, respectively. All tumor flow experiments were acquired on an Attune N×T flow cytometer and analyzed with FlowJo software version 10 (Ashland, Oreg.), using fluorescence-minus-one controls for gating and single-stained OneComp eBeads (eBioscience) to set compensation matrices.
# 4T1 tumors = test: 4T1 orthotopic tumor model; format: in vivo, mouse
# Text: as §1, §2
# [2] = 100 mg/kg BID, study day 10, flow cytometry
smiles,measurement,setting,value
C[C@H](N)C(=O)N1C[C@H](CCCB(O)O)[C@](N)(C(=O)O)C1 [arginase inhibitor],"T cell proliferation restored, of the proliferation observed for T cells without granulocytes",[1]; co-culture with healthy donor granulocytes,90%
same,Depletion of L-arginine from the media by granulocytes,[1]; healthy donor granulocytes,blocked depletion of L-arginine
same,IC50,Recombinant human Arg2,274 nM and 296 nM
same,"Tumor growth, single agent",CT26 tumors; 100 mg/kg BID PO,significantly inhibited the growth; also recorded: reduced
same,Tumor-infiltrating activated CD25+ CD8+ cytotoxic T cells vs vehicle,"CT26 tumors; 100 mg/kg BID, study day 14, flow cytometry",increase
same,Efficacy after depletion of either CD8+ cells or NK cells,"CT26 tumors; 100 mg/kg twice daily, depleting antibodies",blocked the efficacy
same,"Tumor growth inhibition, combination with anti-PD-L1","CT26 tumors; arginase inhibitor 100 mg/kg BID plus anti-PD-L1 5 mg/kg i.p., vs monotherapies",enhanced
same,"Survival at study day 46, combination with anti-PD-L1",CT26 tumors; arginase inhibitor plus anti-PD-L1,90%
same,"Complete responses, combination with anti-PD-L1","CT26 tumors; arginase inhibitor plus anti-PD-L1, N=10 per group",six
same,"Tumor growth inhibition, combination with gemcitabine",CT26 tumors; gemcitabine 50 mg/kg i.p. days 10 and 16,significant increase in tumor growth inhibition
same,"Tumor growth, single agent",4T1 tumors; 100 mg/kg BID PO,significantly inhibited the growth; also recorded: modest effect on tumor growth
same,CD3+ T cells in the tumor vs vehicle,4T1 tumors; [2],increase
same,Myeloid cells in the tumor vs vehicle,4T1 tumors; [2],decrease
same,NK cells in the tumor vs vehicle,4T1 tumors; [2],increase

# Reference: patent US11291674B2 (CALITHERA BIOSCIENCES, INC., priority 2016, dated 2022)
